Source: patent US9561228B2 (Celgene Avilomics Research, Inc., priority 2013, dated 2017)

Tests used:
Erk1 = biological target: T1, Erk1 (Homo sapiens, UniProt P27361); assay: Protein Mass Modification Assay (intact protein MALDI, 60 min, 10-fold excess of compound); format: binding
T1 construct: purchased Millipore 14-439
Procedure, shortened: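 Human Erk1 was incubated 60 min at room temperature with a 10-fold molar excess of compound, then analysed as intact protein by MALDI with sinapinic acid matrix. The centroid mass shift versus untreated protein was divided by compound molecular weight to give percent modified protein.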

[1] = test system: ERK1/2 phosphorylation of p90RSK in HT29 cells; assay: pRSK MSD Assay in HT29 cells; format: cell-based; settings: Homo sapiens, HT-29, read-out: ERK1/ERK2 PRSK MSD HT29 EC50
Procedure, shortened: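 Serum-starved HT29 cells (0.1% FBS overnight) treated with test compound for 120 min at 37° C, then lysed with protease and phosphatase inhibitors. Phospho-p90RSK quantified by MSD sandwich immunoassay: RSK capture antibody, phospho-RSK detection antibody plus Sulfo-tagged antibody, electrochemiluminescence read.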

[2] = test system: HT-29 cells (colorectal adenocarcinoma); assay: Inhibition of cancer cell proliferation, HT-29 (CellTiterGlo, 72 hours); format: cell-based; settings: Homo sapiens
Procedure, shortened: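 HT-29 cells seeded at 3000/well, then treated with 3-fold serial dilutions from a 5,000 nM two-fold solution in serum-free RPMI1640, untreated wells as control, for 72 h at 37° C. CellTiterGlo luminescence converted to cell number via a standard curve; GI50 from percent inhibition versus untreated growth.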

[3] = test system: A375 cells (malignant melanoma); assay: Inhibition of cancer cell proliferation, A375 (CellTiterGlo, 72 hours); format: cell-based; settings: Homo sapiens, A-375
Procedure, shortened: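 A375 melanoma cells, 3000/well, exposed 72 h at 37 °C to compound in 3-fold serial dilutions (solution added as 2× stock starting at 5,000 nM in serum-free DMEM). CellTiterGlo luminescence converted to cell number via standard curve; % inhibition vs untreated control, GI50 from curve fit.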

[4] = test system: HCT116 cells (colorectal carcinoma); assay: Inhibition of cancer cell proliferation, HCT116 (CellTiterGlo, 72 hours); format: cell-based; settings: Homo sapiens, HCT-116
Description: Measurement of Inhibition of Cancer Cell Proliferation (HCT116/Colorectal Carcinoma)
The following protocol used a HCT116 cell line, which cell line is a model for colorectal carcinoma. HCT116 cells were split and 3000 cells in 100 μl of growth medium were added per well of a flat-bottom 96-well plate. A two-fold test compound solution in serum-free RPM1640 was made, starting at 5,000 nM. Then, 3-fold serial dilutions were made across the plate from well 1 to well 11. Well 12, the last well in a row on the plate, was left as untreated control. 100 μl compound solutions were then transferred to the wells, so the total volume of media was 200 μl per well. Plates were returned to a 37° C. incubator, and the cells were cultured for 72 hours. To measure cell proliferation after 72 hours, media was discarded from the plates, 50 μl/well of fresh medium was added, and 50 μl CellTiterGlo solution was added (Promega Cat#G7573). The plate was covered with a dark lid and incubated for 10 min. A white sealing tape was applied to the bottom of the plate, and the plate was read in a luminescence plate reader. […] 50 μl CellTiterGlo was added per well, and the plate was read in a luminescence plate reader after 10 min. The reading was plotted vs. cell number to generate a standard curve and the equation of the curve fit. The compound-treated sample luminescence readings were converted to cell numbers using the curve-fit equation. The percent of inhibition, using untreated control as 100% growth, was then calculated. GI50 was then calculated by GraphPad Prism.

MEK1 activated ERK1 = biological target: T2, MEK1 activated ERK1 (Homo sapiens, UniProt P27361); assay: Omnia continuous-read kinase assay for potency against MEK1 activated ERK1; format: biochemical; settings: MEK1 activated ERK1, ATP at KM; read-out: ERK1 Omnia WT ATP KM IC50
T2 construct: purchased Millipore (Billerica, Mass.) 14-439-K
Procedure, shortened: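 Apparent IC50 came from initial reaction slopes (RFU vs time) plotted against log inhibitor with a variable-slope fit. Reactions were started with ERK1 (4 nM final) added to 50 μM ATP, roughly at its appKM, and 10 μM Sox-conjugated ST17 peptide in 20 mM Tris pH 7.5, 5 mM MgCl2. Fluorescence was monitored every 71 seconds.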

T1 sequence (P27361 whole entry): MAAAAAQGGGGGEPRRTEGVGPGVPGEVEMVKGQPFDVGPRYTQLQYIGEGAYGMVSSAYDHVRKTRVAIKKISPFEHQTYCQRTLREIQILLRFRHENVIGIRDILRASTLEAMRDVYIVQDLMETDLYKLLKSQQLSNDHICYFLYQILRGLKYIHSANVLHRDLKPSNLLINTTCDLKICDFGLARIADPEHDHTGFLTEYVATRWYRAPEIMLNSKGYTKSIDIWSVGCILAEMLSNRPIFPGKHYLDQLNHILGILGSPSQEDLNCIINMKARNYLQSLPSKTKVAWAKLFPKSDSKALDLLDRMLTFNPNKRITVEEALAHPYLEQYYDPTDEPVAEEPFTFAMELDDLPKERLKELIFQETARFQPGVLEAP
T2 sequence (P27361 whole entry): as above

Row | Structure (SMILES) | ERK1 Mass Mod (%) (Erk1) | EC50 [1] [nM] | GI50 [2] [nM] | GI50 [3] [nM] | GI50 [4] [nM] | IC50 (MEK1 activated ERK1) [nM]
1 | C=CC(=O)Nc1ccccc1Nc1nc(N[C@H]2CCC[C@@H](C(N)=O)C2)ncc1Cl [Compound I-120, (1R,3S)-3-((4-((2-acrylamidophenyl)amino)-5-chloropyrimidin-2-yl)amino)cyclohexanecarboxamide] | E (a mass modification of ≧70%) | < 100 | < 100 | 101 to 500 | – | –
2 | C=C(F)C(=O)Nc1ccccc1Nc1nc(N[C@H]2CCCN(C(C)=O)C2)ncc1C(F)(F)F [Compound I-55, (S)—N-(2-((2-((1-Acetylpiperidin-3-yl)amino)-5-(trifluoromethyl)pyrimidin-4-yl)amino)phenyl)-2-fluoroacrylamide] | – | 101 to 500 | < 100 | < 100 | 101 to 500 | –
3 | C=CC(=O)Nc1ccccc1Nc1nc(N[C@H]2CCCN(C(=O)CO)C2)ncc1Cl [Compound I-123, (S)—N-(2-((5-chloro-2-((1-(2-hydroxyacetyl)piperidin-3-yl)amino)pyrimidin-4-yl)amino)phenyl)acrylamide] | – | < 100 | < 100 | < 100 | < 100 | –
4 | C=CC(=O)Nc1ccccc1Nc1nc(N[C@H]2CCCN(C(=O)C=O)C2)ncc1C(F)(F)F [Compound I-52, (S)—N-(2-((2-((1-(2-Oxoacetyl)piperidin-3-yl)amino)-5-(trifluoromethyl)pyrimidin-4-yl)amino)phenyl)acrylamide] | – | – | 101 to 500 | 101 to 500 | > 1000 | 101 to 500
5 | C=CC(=O)Nc1ccccc1Nc1nc(N[C@H]2CCC[C@@H](C(N)=O)C2)ncc1C(F)(F)F [Compound I-118, (1R,3S)-3-((4-((2-acrylamidophenyl)amino)-5-(trifluoromethyl)pyrimidin-2-yl)amino)cyclohexanecarboxamide] | E (a mass modification of ≧70%) | < 100 | 101 to 500 | 101 to 500 | – | –
6 | C=CC(=O)Nc1ccccc1Nc1nc(Nc2cc(OC)ncc2C)ncc1Cl [Compound I-240, N-(2-((5-chloro-2-((2-methoxy-5-methylpyridin-4-yl)amino)pyrimidin-4-yl)amino)phenyl)acrylamide] | – | < 100 | < 100 | < 100 | 101 to 500 | –
7 | C=CC(=O)Nc1cc(C)ccc1Nc1nc(Nc2cc(C(C)=O)ccc2C)ncc1Cl [Compound I-239, N-(2-((2-((5-acetyl-2-methylphenyl)amino)-5-chloropyrimidin-4-yl)amino)-5-methylphenyl)acrylamide] | E (key: E: a mass modification of ≧70%; F: a mass modification of 31-69%; G: a mass modification ≦30%) | – | 101 to 500 | 101 to 500 | 501 to 999 | 101 to 500
8 | C=CC(=O)Nc1cc(Cl)ccc1Nc1nc(Nc2cc(OC)ncc2C)ncc1Cl [Compound I-248, N-(5-chloro-2-((5-chloro-2-((2-methoxy-5-methylpyridin-4-yl)amino)pyrimidin-4-yl)amino)phenyl)acrylamide] | – | – | 501 to 999 | 501 to 999 | > 1000 | –
9 | C=CC(=O)Nc1cc(OC)ccc1Nc1nc(Nc2cc(C(N)=O)ccc2C)ncc1Cl [Compound I-237, 3-((4-((2-acrylamido-4-methoxyphenyl)amino)-5-chloropyrimidin-2-yl)amino)-4-methylbenzamide] | – | 101 to 500 | < 100 | < 100 | 501 to 999 | –
10 | C=CC(=O)Nc1cc(C)ccc1Nc1nc(N[C@H]2CCCN(C(C)=O)C2)ncc1Cl [Compound I-139, (S)—N-(2-((2-((1-acetylpiperidin-3-yl)amino)-5-chloropyrimidin-4-yl)amino)-5-methylphenyl)acrylamide] | E (a mass modification of ≧70%) | < 100 | < 100 | < 100 | < 100 | –
11 | CCC(=O)Nc1ccccc1Nc1nc(N[C@H]2CCCN(C(=O)CO)C2)ncc1Cl [Compound I-311, (S)—N-(2-((5-chloro-2-((1-(2-hydroxyacetyl)piperidin-3-yl)amino)pyrimidin-4-yl)amino)phenyl)propionamide] | – | 501 to 999 | 501 to 999 | > 1000 | > 1000 | –
12 | C=CC(=O)Nc1ccccc1Nc1nc(N[C@H]2CCCN(C(C)=O)C2)ncc1C(F)(F)F [Compound I-10, (S)—N-(2-(2-(1-acetylpiperidin-3-ylamino)-5-(trifluoromethyl)pyrimidin-4-ylamino)phenyl)acrylamide] | – | < 100 | < 100 | < 100 | < 100 | –
13 | C=CC(=O)Nc1ccccc1Nc1nc(Nc2cncc(OC)c2)ncc1C(F)(F)F [Compound I-86, N-(2-((2-((5-Methoxypyridin-3-yl)amino)-5-(trifluoromethyl)pyrimidin-4-yl)amino)phenyl)acrylamide] | E (a mass modification of ≧70%) | < 100 | < 100 | < 100 | < 100 | –
14 | C=CC(=O)Nc1cc(C)ccc1Nc1nc(N[C@H]2CCCN(C(=O)CO)C2)ncc1C(F)(F)F [Compound I-20, (S)—N-(2-((2-((1-(2-Hydroxyacetyl)piperidin-3-yl)amino)-5-(trifluoromethyl)pyrimidin-4-yl)amino)-5-methylphenyl)acrylamide] | – | < 100 | < 100 | < 100 | < 100 | –
15 | C=CC(=O)Nc1cc(C)ccc1Nc1nc(N[C@H]2CCCN(C(C)=O)C2)ncc1C(F)(F)F [Compound I-19, (S)—N-(2-((2-((1-Acetylpiperidin-3-yl)amino)-5-(trifluoromethyl)pyrimidin-4-yl)amino)-5-methylphenyl)acrylamide] | – | < 100 | < 100 | < 100 | < 100 | –
16 | C=CC(=O)Nc1cc(C)ccc1Nc1nc(Nc2cc(OC)ncc2C)ncc1Cl [Compound I-241, N-(2-((5-chloro-2-((2-methoxy-5-methylpyridin-4-yl)amino)pyrimidin-4-yl)amino)-5-methylphenyl)acrylamide] | – | < 100 | < 100 | 101 to 500 | 101 to 500 | –
